Laboratory results taken from US20140031309A1, “Beta-L-N4 Hydroxycytosine Deoxynucleosides and their use as Pharmaceutical Agents in the Prophylaxis or Therapy of Viral Diseases” (MAX-DELBRUECK-CENTRUM FUER MOLEKULARE MEDIZIN, priority 2004, published 2014).
Several values for one entry are separate records, joined by “and”; a condition that tells them apart may be missing. Equal entries are not always repeated. Where two headings read alike, the source gives them in different places.

Legend:
HBV [1] = assay: Inhibition of HBV-replication in HepG2 2.2.15 cells (extracellular HBV DNA, PCR); type: cell-based, hepatitis B virus; conditions: read-out: EC50, concentration required for 50% reduction of HBV DNA in the medium of the cells
Experimental: The antiviral efficacy of the compounds of the invention was investigated on HepG2 2.2.15 cells, a human hepatoblastoma cell line which has the replication-competent HBV genome stably integrated therein and produces infectious progeny viruses in a productive manner (Sells et al., Proc Natl Acad Sci USA 1987, 84: 1005-1009).
The above cells were cultured under standardized conditions as specified by Korba and Gerin, and the amount of extracellular viral DNA was determined (Korba et al., Antiviral Res 1992, 19: 55-70).
Following passaging, the HepG2 2.2.15 cells were seeded at a density of about 60% in 12-well plates and cultured to confluence in 10% FBS Dulbecco MEM. Thereafter, the medium was changed to 2% FBS, and the cells were cultured for another 24 hours.
After another change of medium, the cells were treated with varying concentrations of compounds according to the invention. Every 24 hours the compounds were re-added together with the medium. On the 6th day of treatment, the cell supernatants were centrifuged off and stored at −20° C. until analysis of the HBV DNA was effected.
Following treatment of the culture supernatants with proteinase K, the extracellular viral DNA was amplified by means of PCR using the following primers (forward: 5′-CTCCAGTTCAGGAACAGTAAACCC-3′(SEQ ID NO. 1); reverse: 5′-TTGTGAGCTCAGAAAGGCCTTGTAAGTTGGCG-3′(SEQ ID NO. 2). The PCR products were separated on 1% agarose, stained with ethidium bromide and quantified using a Fluor-S™ Multimager (Biorad).
For calibration of the PCR reaction, serial dilutions of the pUC19 HBV and pTHBV plasmids with known genome equivalents (GE) were used, resulting in a lower detection limit of about 10^3 GE and a linearity between 10^3 and 10^5 GE.

HepG2-cells = assay: Cytotoxicity, inhibition of proliferation of HepG2 cells; type: cell-based, human; conditions: for CD50, concentration producing 50% inhibition of cell proliferation: two days incubation; for antiproliferative activity: in words
Experimental: (§1) To this end, established cells of a human myeloid leukemia (HL-60) in RPMI medium, and the above-mentioned HepG2 cells in Dulbecco MEM, respectively, were incubated for two days using varying concentrations of compounds, and the proliferation rate of the cells was subsequently determined. The data were used to determine the concentration of compounds resulting in 50% inhibition of proliferation (CD50).

HL-60 cells = assay: Cytotoxicity, inhibition of proliferation of HL-60 cells; type: cell-based, human; conditions: for CD50, concentration producing 50% inhibition of cell proliferation: two days incubation; for antiproliferative activity: in words
Experimental: as §1

HIV = assay: Inhibition of HIV replication; type: cell-based; conditions: read-out: EC50 against HIV replication
HBV DNA polymerase = molecular target: T1, HBV DNA polymerase (Hepatitis B virus genotype D subtype ayw, UniProt P03156); assay: Inhibition of endogenous HBV DNA polymerase by nucleoside triphosphates; type: biochemical; conditions: virus particles from patient serum, 3H-dCTP, 1 h 37° C., read-out: IC50, 50% inhibition of the HBV DNA polymerase activity
T1 construct: the endogenous HBV DNA polymerase activity; from tissue; host or cells: serum of patients with untreated hepatitis B virus infection; virus particles purified by ultracentrifugation and lysed
T1 sequence (P03156 whole entry): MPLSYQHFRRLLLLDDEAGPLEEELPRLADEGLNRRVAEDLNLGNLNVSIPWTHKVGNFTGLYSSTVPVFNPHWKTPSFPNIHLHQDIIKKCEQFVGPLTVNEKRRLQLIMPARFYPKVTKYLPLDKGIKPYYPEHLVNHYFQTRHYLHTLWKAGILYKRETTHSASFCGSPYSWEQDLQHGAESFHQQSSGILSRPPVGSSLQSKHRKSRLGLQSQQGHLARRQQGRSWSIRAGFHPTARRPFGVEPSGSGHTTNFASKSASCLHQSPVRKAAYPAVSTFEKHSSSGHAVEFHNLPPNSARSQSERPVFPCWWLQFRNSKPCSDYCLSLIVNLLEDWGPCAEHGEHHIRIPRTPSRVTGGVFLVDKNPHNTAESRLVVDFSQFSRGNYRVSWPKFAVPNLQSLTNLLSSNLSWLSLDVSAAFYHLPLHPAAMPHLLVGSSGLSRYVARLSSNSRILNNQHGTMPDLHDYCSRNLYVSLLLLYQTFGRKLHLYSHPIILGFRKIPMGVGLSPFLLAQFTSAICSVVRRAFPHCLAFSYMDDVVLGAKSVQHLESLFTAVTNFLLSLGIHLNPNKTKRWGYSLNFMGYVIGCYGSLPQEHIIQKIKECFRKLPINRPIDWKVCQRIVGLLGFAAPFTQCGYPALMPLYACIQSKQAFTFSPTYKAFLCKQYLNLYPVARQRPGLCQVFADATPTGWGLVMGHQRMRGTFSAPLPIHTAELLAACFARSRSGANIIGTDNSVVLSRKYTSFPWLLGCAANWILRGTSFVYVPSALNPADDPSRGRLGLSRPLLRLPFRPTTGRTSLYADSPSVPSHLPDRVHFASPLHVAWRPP
Experimental: To determine the endogenous HBV DNA polymerase activity, about 100 ml of serum from patients with untreated hepatitis B virus infections from Charité, Berlin, (>10^7 HBV particles/ml), was centrifuged at 3000 rpm. Virus particles of the cleared serum were sedimented in a Beckman SW28 rotor at 25,000 rpm, 60 min. The virus pellet was suspended in 7 ml of TKM buffer (50 mM Tris-HCl, pH 7.5, 50 mM KCl, 5 mM MgCl2), layered over a step gradient of 10 ml each of 0.3 M, 0.6 M, 0.9 M saccharose in TKM buffer and centrifuged at 25,000 rpm for 20 hours.
The purified virus pellet was suspended in 250 μl TKM buffer, lysed by ultrasound, divided in aliquots and frozen at −80° C. (Davies et al., Antiviral Res 1996, 30: 133-145).
The HBV DNA polymerase assay contained in 30 μl about 2-4×10^8 purified virus particles (lysed beforehand additionally in 6% β-mercaptoethanol, 10% Igepal for 15 min at room temperature), 42 mM Tris-HCl, (pH 7.5), 34 mM MgCl2, 340 mM KCl, 22 mM β-mer-captoethanol, 0.4% Igepal, 70 μM TTP, dATP, dGTP and 1 μCi ^3HdCTP (=0.7 μM dCTP) (Matthes et al., Antimicrob Agents & Chemother 1991, 35: 1254-1257) and varying concentrations of β-L-N4-hydroxycytosine nucleoside triphosphates as inhibitors.
Following a one-hour incubation at 37° C., 20 μl of the assay volume was placed on paper filter, washed 5 times with 5% trichloroacetic acid and 0.1% Na pyrophosphate, and the ^3H-dCMP incorporated in the HBV DNA was subsequently measured in a Liquid Scintillation Counter.
Using the concentration-dependent inhibition curves of HBV DNA synthesis, the concentration of β-L-N4-hydroxycytosine nucleoside triphosphates resulting in 50% inhibition of the HBV DNA polymerase activity was determined.

HBV [2] = conditions: treatment of HBV infections; cited from earlier work
[3] = HepG2 2.2.15 cells, 6 days incubation, extracellular HBV DNA

| Compound | CD50, concentration producing 50% inhibition of cell proliferation (HepG2-cells) | CD50, concentration producing 50% inhibition of cell proliferation (HL-60 cells) | EC50 (HBV [1]; [3]) | other results |
| --- | --- | --- | --- | --- |
| Nc1ccn([C@@H]2CS[C@H](CO)O2)c(=O)n1 [3TC (lamivudine), β-L-2′,3′-dideoxy-3′-thiacytidine, reference compound] | 1900 µM | 2000 µM | – | EC50 (HBV [1]; Hepatitis B virus, HepG2 2.2.15, 144 h): 100 nM |
| O=c1nc(NO)ccn1[C@H]1CS[C@@H](CO)O1 [Hy3TC, β-L-2′,3′-dideoxy-3′-thia-N4-hydroxycytidine] | 1230 µM | 1450 µM | 500 nM | EC50 (HIV): > 25000 nM |
| O=c1nc(NO)c(F)cn1[C@H]1CS[C@@H](CO)O1 [HyFTC, β-L-2′,3′-dideoxy-3′-thia-5-fluoro-N4-hydroxycytidine] | 975 µM | 1100 µM | 300 nM | – |
| Nc1nc(=O)n([C@@H]2C[C@@H](O)[C@H](CO)O2)cc1F [L-FCdR, β-L-5-fluorodeoxycytidine, reference compound] | – | – | 1200 nM | – |
| O=c1nc(NO)ccn1[C@@H]1C[C@@H](F)[C@H](CO)O1 [L-FHyCdR, β-L-3′-fluoro-2′,3′-dideoxy-N4-hydroxycytidine] | 820 µM | 4400 µM | – | – |
| O=c1nc(NO)ccn1[C@@H]1C[C@@H](O)[C@H](CO)O1 [L-HyCdR, β-L-N4-hydroxydeoxycytidine] | 545 µM | 460 µM | 3000 nM | – |
| O=c1nc(NO)c(F)cn1[C@@H]1C[C@@H](O)[C@H](CO)O1 [L-HyFCdR, β-L-5-fluoro-N4-hydroxydeoxycytidine] | 920 µM | 1370 µM | 4500 nM | – |
| O=c1nc(NO)ccn1[C@H]1O[C@@H](CO)C=C1F [L-HyFddeC, β-L-2′,3′-didehydro-2′,3′-dideoxy-2′-fluoro-N4-hydroxycytidine] | 1370 µM | 1130 µM | < 100 nM | antiproliferative activity (HepG2-cells): lost the antiproliferative activity; antiproliferative activity (HL-60 cells): lost the antiproliferative activity |
| Cc1cn([C@@H]2C[C@@H](O)[C@H](CO)O2)c(=O)nc1NO [L-HyMetCdR, β-L-5-methyl-N4-hydroxydeoxycytidine] | 490 µM | 600 µM | – | – |
| O=c1nc(NO)ccn1[C@@H]1CC[C@H](CO)O1 [L-HyddC, β-L-2′,3′-dideoxy-N4-hydroxycytidine] | 2250 µM | 1600 µM | – | antiproliferative activity (HepG2-cells): lost the antiproliferative activity; antiproliferative activity (HL-60 cells): lost the antiproliferative activity |
| O=c1nc(NO)c(F)cn1[C@@H]1CC[C@H](CO)O1 [L-HyddFC, β-L-2′,3′-dideoxy-5-fluoro-N4-hydroxycytidine] | 1580 µM | 1860 µM | 350 nM | – |
| O=c1nc(NO)ccn1[C@@H]1C=C[C@H](CO)O1 [L-HyddeC, β-L-2′,3′-didehydro-2′,3′-dideoxy-N4-hydroxycytidine] | >5000 µM | >3500 µM | 50 nM | – |
| O=c1nc(NO)c(F)cn1[C@@H]1C=C[C@H](CO)O1 [L-HyddeFC, β-L-2′,3′-didehydro-2′,3′-dideoxy-5-fluoro-N4-hydroxycytidine] | – | – | < 100 nM | antiproliferative activity (HepG2-cells): lost the antiproliferative activity; antiproliferative activity (HL-60 cells): lost the antiproliferative activity |
| [N-]=[N+]=N[C@@H]1C[C@@H](n2ccc(NO)nc2=O)O[C@H]1CO [L-N3HyCdR, β-L-3′-azido-2′,3′-dideoxy-N4-hydroxycytidine] | 1160 µM | 2000 µM | – | – |
| Cc1cn([C@@H]2C[C@@H](O)[C@H](CO)O2)c(=O)[nH]c1=O [L-TdR, β-L-thymidine, reference compound] | – | – | – | EC50 (HBV [1]; Hepatitis B virus, 144 h, HepG2 2.2.15 cells, 6 days incubation, extracellular HBV DNA): 300 nM |
| Nc1ccn([C@@H]2CC[C@H](CO)O2)c(=O)n1 [L-ddC, β-L-2′,3′-dideoxycytidine, reference compound] | – | – | 250 nM | – |
| O=c1nc(NO)ccn1[C@@H]1CS[C@H](COP(=O)(O)OP(=O)(O)OP(=O)(O)O)O1 [Triphosphate of L-Hy3TC] | – | – | – | IC50 (HBV DNA polymerase): 150 to 650 nM and 650 nM |
| O=c1nc(NO)ccn1[C@@H]1C[C@@H](O)[C@H](COP(=O)(O)OP(=O)(O)OP(=O)(O)O)O1 [Triphosphate of L-HyCdR] | – | – | – | IC50 (HBV DNA polymerase): 6000 nM |
| Cc1cn([C@@H]2C[C@@H](O)[C@H](COP(=O)(O)OP(=O)(O)OP(=O)(O)O)O2)c(=O)nc1NO [Triphosphate of L-HyMetCdR] | – | – | – | IC50 (HBV DNA polymerase): 4000 nM |
| O=c1nc(NO)ccn1[C@@H]1CC[C@H](COP(=O)(O)OP(=O)(O)OP(=O)(O)O)O1 [Triphosphate of L-HyddC] | – | – | – | IC50 (HBV DNA polymerase): 150 to 650 nM and 550 nM |
| O=c1nc(NO)ccn1[C@@H]1C=C[C@H](COP(=O)(O)OP(=O)(O)OP(=O)(O)O)O1 [Triphosphate of L-HyddeC] | – | – | – | IC50 (HBV DNA polymerase): 150 to 650 nM and 280 nM |
| α-interferon | – | – | – | share of the patients in whom it is effective (HBV [2]): about 33% |
